# Measurements published in US20260224542A1, “PHARMACEUTICAL COMPOSITION CONTAINING ß-LACTAMASE INHIBITOR AND USE THEREOF” (priority 2023, published 2026).
# Experiments:
# [1] = test system: Pseudomonas aeruginosa ACC00680; assay: Neutropenic mouse thigh infection, imipenem + cilastatin + Compound 1 dose ratios (Example 2); assay type: in vivo; conditions: Compound 1 total 96 mg/kg IV; 9 h after inoculation
# Description: (§1) The overnight cultures are washed twice with phosphate buffer solution (PBS) and adjusted to the optimal concentration in PBS.
# (§2) For intravenous (IV) administration, the solution of Compound 1 is prepared using a Captisol vehicle, which is 25 mM acetate buffer (prepared with sodium acetate trihydrate) containing 10% w/v Captisol. The pH is adjusted to 5.0 with 2N acetic acid solution. A desired volume of buffer is added to the weighed sample, the desired concentration of Compound 1 is prepared in the buffer, which is then ultrasonically heated in a water bath until a clear solution was obtained. The administrated volume of Compound 1 is 5 mL/kg.
# (§3) For subcutaneous (SC) administration, an imipenem solution or imipenem-cilastatin solution is prepared in sterile PBS by using imipenem monohydrate or imipenem monohydrate and cilastatin sodium. The desired concentration of imipenem is prepared by adding PBS to the solid powder, then sonicating the mixture in a water bath until a clear solution is obtained, and the administrated volume is 10 mL/kg.
# (§4) The mice were divided into 16 groups, with 5 mice in each group. […]
# (§5) For the […] Group 1 (control group) above, animals were euthanized with an overdose of sodium pentobarbital 1 hour after inoculation. As described above, bilateral thighs were dissected and quantitatively cultured for use as final samples.
# [2] = test system: Klebsiella pneumoniae AR0113; assay: Neutropenic mouse thigh infection, imipenem + Compound 1 dose ratios (Example 4); assay type: in vivo; conditions: Compound 1 total 96 mg/kg; 9 h after inoculation
# Description: as §1, §2, §3, §4, §5
# [3] = test system: Pseudomonas aeruginosa ACC00680; assay: Neutropenic mouse thigh infection, imipenem + Compound 1 dose ratios (Example 1); assay type: in vivo; conditions: 9 h after inoculation
# Description: as §1, §2, §3
# The mice were divided into 15 groups, with 5 mice in each group. The test was carried out following the above steps, the concentration of the bacterial solution of Pseudomonas aeruginosa ACC00680 was 1.83×10^5 colony forming unit (CFU) per gram of thigh tissues, and the administration was conducted according to the scheme in the table below.
# For Groups 2 to 15 above, animals were euthanized 9 hours after inoculation using an overdose of sodium pentobarbital, followed by confirmation of death by cervical dislocation.
# as §5
# [4] = Solubility of Compound 1 incubated for 24 h at 25° C. (Example 6); assay type: physicochemical
# Description: The solubilization effect of sodium sulfobutylether-β-cyclodextrin (SBECD) and hydroxypropyl-β-cyclodextrin (HP-β-CD) on Compound 1 was investigated by taking the solubility in 50 mM pH 4.5 acetate buffer medium and water as a reference.
# In the art, surfactants may also be used for solubilization. To further improve the solubility of Compound 1, a surfactant was added on the basis of SBECD to investigate the solubility.
# [5] = test system: Acinetobacter baumannii AR0274; assay: Neutropenic mouse thigh infection, imipenem + Compound 1 dose ratios (Example 3); assay type: in vivo; conditions: Compound 1 total 96 mg/kg IV; 9 h after inoculation
# Description: as §1, §2, §3, §4, §5
compound,measurement,setting,value
N=C1NC[C@@H](c2nnc([C@@H]3CC4(CC4)[C@@H]4CN3C(=O)N4OS(=O)(=O)O)o2)N1 [Compound 1],Group geometric mean (CFU/g),[1],3.21 × 10^7 CFU/g
same,Group geometric mean (CFU/g),[2],2.06 × 10^7 CFU/g
same,Group geometric mean (CFU/g),[3]; Compound 1 total 50 mg/kg IV,4.63 × 10^5 CFU/g
same,Group geometric mean (CFU/g),[3]; Compound 1 total 75 mg/kg IV,1.93 × 10^6 CFU/g
same,Group geometric mean (CFU/g),[3]; Compound 1 total 100 mg/kg IV,4.52 × 10^6 CFU/g
same,effect of surfactant added on the basis of SBECD on solubility,[4]; SBECD 10% plus surfactant,failed to significantly improve the solubility
same,solubility,"[4]; water, background statement, conditions not stated",600 µg/mL
same,Group geometric mean (CFU/g),[5],1.89 × 10^7 CFU/g
